Source: patent US8426202B2, “Cell culture medium” (Cellca GmbH, priority 2005, dated 2013)
Where “and” joins values, the source holds several entries; their conditions need not be identical. Equal entries are not always repeated.

Tests used:
[1] = test system: CHO cell line that expresses an antibody; assay: Fed-batch experiment with the substances according to the invention (Example 2, Table 2); format: cell-based, Chinese hamster; set-up: Viabil.: concentration or dose not given beside the values
Text: (§1) Feed took place at regular intervals.

[2] = test system: CHO cell line that expresses an antibody; assay: Batch experiment with the substances according to the invention (Example 1); format: cell-based, Chinese hamster; conditions: batch mode, substance 0.5-1 g/l, basal medium glucose 4.7 g/l, glutamine […]
Method: Cells were stored in the gas phase of liquid nitrogen. One to two ampoules were thawed in nutrient medium preheated to 37° C. and transferred to spinner bottles, shaking flasks or T-bottles. In the first few days of cultivation the medium was changed, depending on the clone.
Depending on the clone, cells were split either every second day or every third day or after two and three days alternately into new medium, i.e. a portion of the cell suspension was removed from culture and a smaller portion of the cell suspension was reused as inoculum for the next culture. This inoculum was made up with fresh prewarmed nutrient medium. Cells were incubated at 37° C. in an incubator with a CO2 atmosphere. An alternative for incubating cells was cultivation in an incubation chamber at 37° C., in this way cells were held in culture for several passages. A passage means a cultivation time of two to three days. At various points of time, cell suspension was taken from strain maintenance and used as inoculum for experiments. The experiments were carried out in various cultivation systems, for example in spinner bottles, T-bottles, shaking flasks, culture tubes or in controlled bioreactors.
as §1

O=C(O)CCCCC(=O)O [Adipic acid]
Total Cell Density TCD ([1]; day 0, fed-batch): 1.5 E5/ml
Viabil. ([1]; day 0, fed-batch): 91%
Viable Cell Density (VCD) ([1]; day 0, fed-batch): 1.37 E5/ml
Total Cell Density TCD ([1]; day 2, fed-batch): 4.4 E5/ml
Viabil. ([1]; day 2, fed-batch): 98%
Viable Cell Density (VCD) ([1]; day 2, fed-batch): 4.3 E5/ml
Total Cell Density TCD ([1]; day 5, fed-batch): 12 E5/ml and 11.8 E5/ml
Viabil. ([1]; day 5, fed-batch): 98% and 95%
Viable Cell Density (VCD) ([1]; day 5, fed-batch): 11.7 E5/ml and 11.2 E5/ml
Total Cell Density TCD ([1]; day 8, fed-batch): 40 E5/ml and 36.3 E5/ml
Viabil. ([1]; day 8, fed-batch): 91% and 92%
Gln ([2]; day 0): 1.53 mM
Glucose ([2]; day 0): 4.69 g/L
Lactate ([2]; day 0): 0 g/L
NH4 ([2]; day 0): 1.22 mM
Specific Glutamin consumption (Gln/VCD) ([2]; day 0): 1.49
Specific ammonia production (NH4/VCD) ([2]; day 0): 1.18
Specific glucose consumption (Gluc/VCD) ([2]; day 0): 4.55
Specific lactate production (Lac/VCD) ([2]; day 0): 0.00
Total Cell Density TCD ([2]; day 0): 1.07 E5/ml
Viabil. ([2]; day 0): 96%
Viable Cell Density (VCD) ([2]; day 0): 1.03 E5/ml
Gln ([2]; day 3): 0.86 mM
Glucose ([2]; day 3): 4.28 g/L
Lactate ([2]; day 3): 0.62 g/L
NH4 ([2]; day 3): 1.81 mM
Specific Glutamin consumption (Gln/VCD) ([2]; day 3): 0.12
Specific ammonia production (NH4/VCD) ([2]; day 3): 0.25
Specific glucose consumption (Gluc/VCD) ([2]; day 3): 0.60
Specific lactate production (Lac/VCD) ([2]; day 3): 0.09
Total Cell Density TCD ([2]; day 3): 7.2 E5/ml
Viabil. ([2]; day 3): 99%
Viable Cell Density (VCD) ([2]; day 3): 7.1 E5/ml
Gln ([2]; day 6): 0.22 mM
Glucose ([2]; day 6): 2.95 g/L
Lactate ([2]; day 6): 0.93 g/L
NH4 ([2]; day 6): 2.67 mM
Specific Glutamin consumption (Gln/VCD) ([2]; day 6): 0.01
Specific ammonia production (NH4/VCD) ([2]; day 6): 0.07
Specific glucose consumption (Gluc/VCD) ([2]; day 6): 0.07
Specific lactate production (Lac/VCD) ([2]; day 6): 0.02
Total Cell Density TCD ([2]; day 6): 41.6 E5/ml
Viabil. ([2]; day 6): 98%
Viable Cell Density (VCD) ([2]; day 6): 40.6 E5/ml
Gln ([2]; day 8): 0.32 mM
Glucose ([2]; day 8): 1.94 g/L
Lactate ([2]; day 8): 0.95 g/L
NH4 ([2]; day 8): 3 mM
Specific Glutamin consumption (Gln/VCD) ([2]; day 8): 0.02
Specific ammonia production (NH4/VCD) ([2]; day 8): 0.20
Specific glucose consumption (Gluc/VCD) ([2]; day 8): 0.13
Specific lactate production (Lac/VCD) ([2]; day 8): 0.06
Total Cell Density TCD ([2]; day 8): 17.1 E5/ml
Viabil. ([2]; day 8): 87%
Viable Cell Density (VCD) ([2]; day 8): 14.9 E5/ml
Gln ([2]; day 11): 0.49 mM
Glucose ([2]; day 11): 0.89 g/L
Lactate ([2]; day 11): 1.28 g/L
NH4 ([2]; day 11): 3.38 mM
Specific Glutamin consumption (Gln/VCD) ([2]; day 11): 0.05
Specific ammonia production (NH4/VCD) ([2]; day 11): 0.32
Specific glucose consumption (Gluc/VCD) ([2]; day 11): 0.08
Specific lactate production (Lac/VCD) ([2]; day 11): 0.12
Total Cell Density TCD ([2]; day 11): 23 E5/ml
Viabil. ([2]; day 11): 46%
Viable Cell Density (VCD) ([2]; day 11): 10.6 E5/ml

NC(=O)NCCC[C@H](N)C(=O)O [Citrulline]
Gln ([2]; day 0): 1.53 mM
Glucose ([2]; day 0): 4.69 g/L
Lactate ([2]; day 0): 0 g/L
NH4 ([2]; day 0): 1.22 mM
Specific Glutamin consumption (Gln/VCD) ([2]; day 0): 1.49
Specific ammonia production (NH4/VCD) ([2]; day 0): 1.18
Specific glucose consumption (Gluc/VCD) ([2]; day 0): 4.55
Specific lactate production (Lac/VCD) ([2]; day 0): 0.00
Total Cell Density TCD ([2]; day 0): 1.07 E5/ml
Viabil. ([2]; day 0): 96%
Viable Cell Density (VCD) ([2]; day 0): 1.03 E5/ml
Gln ([2]; day 3): 0.82 mM
Glucose ([2]; day 3): 4.14 g/L
Lactate ([2]; day 3): 0.83 g/L
NH4 ([2]; day 3): 1.87 mM
Specific Glutamin consumption (Gln/VCD) ([2]; day 3): 0.11
Specific ammonia production (NH4/VCD) ([2]; day 3): 0.25
Specific glucose consumption (Gluc/VCD) ([2]; day 3): 0.55
Specific lactate production (Lac/VCD) ([2]; day 3): 0.11
Total Cell Density TCD ([2]; day 3): 7.7 E5/ml
Viabil. ([2]; day 3): 97%
Viable Cell Density (VCD) ([2]; day 3): 7.5 E5/ml
Gln ([2]; day 6): 0.27 mM
Glucose ([2]; day 6): 2.62 g/L
Lactate ([2]; day 6): 1.16 g/L
NH4 ([2]; day 6): 2.66 mM
Specific Glutamin consumption (Gln/VCD) ([2]; day 6): 0.01
Specific ammonia production (NH4/VCD) ([2]; day 6): 0.07
Specific glucose consumption (Gluc/VCD) ([2]; day 6): 0.07
Specific lactate production (Lac/VCD) ([2]; day 6): 0.03
Total Cell Density TCD ([2]; day 6): 39.6 E5/ml
Viabil. ([2]; day 6): 96%
Viable Cell Density (VCD) ([2]; day 6): 37.9 E5/ml
Gln ([2]; day 8): 0.37 mM
Glucose ([2]; day 8): 1.7 g/L
Lactate ([2]; day 8): 1.12 g/L
NH4 ([2]; day 8): 2.86 mM
Specific Glutamin consumption (Gln/VCD) ([2]; day 8): 0.03
Specific ammonia production (NH4/VCD) ([2]; day 8): 0.20
Specific glucose consumption (Gluc/VCD) ([2]; day 8): 0.12
Specific lactate production (Lac/VCD) ([2]; day 8): 0.08
Total Cell Density TCD ([2]; day 8): 17.8 E5/ml
Viabil. ([2]; day 8): 82%
Viable Cell Density (VCD) ([2]; day 8): 14.6 E5/ml
Gln ([2]; day 11): 0.51 mM
Glucose ([2]; day 11): 0.7 g/L
Lactate ([2]; day 11): 1.48 g/L
NH4 ([2]; day 11): 3.26 mM
Specific Glutamin consumption (Gln/VCD) ([2]; day 11): 0.06
Specific ammonia production (NH4/VCD) ([2]; day 11): 0.40
Specific glucose consumption (Gluc/VCD) ([2]; day 11): 0.09
Specific lactate production (Lac/VCD) ([2]; day 11): 0.18
Total Cell Density TCD ([2]; day 11): 21.3 E5/ml
Viabil. ([2]; day 11): 38%
Viable Cell Density (VCD) ([2]; day 11): 8.2 E5/ml
